Experimental data reported in US20070249655A1, “4-Substituted-1,5-Dihydro-Pyrido[3,2-B]Indol-2-Ones” (priority 2004, published 2007).
pEC50: −log10 of the molar value. Where two headings read alike, the source gives them in different places.

Tests used:
[1] = system: HIV strain F (Y188L); assay: Antiviral cellular assay, mutant strain F; type: cell-based
Procedure: (§1) HIV- or mock-infected MT4 cells were incubated for five days in the presence of various concentrations of the inhibitor. At the end of the incubation period, the replicating virus in the control cultures has killed all HIV-infected cells in the absence of any inhibitor. Cell viability was determined by measuring the concentration of MTT, a yellow, water soluble tetrazolium dye that is converted to a purple, water insoluble formazan in the mitochondrial of living cells only. Upon solubilization of the resulting formazan crystals with isopropanol, the absorbance of the solution was monitored at 540 nm. The values correlate directly to the number of living cells remaining in the culture at the completion of the five day incubation. The inhibitory activity of the compound was monitored on the virus-infected cells and was expressed as EC50 and EC90. These values represent the amount of the compound required to protect 50% and 90%, respectively, of the cells from the cytopathogenic effect of the virus. The toxicity of the compound was measured on the mock-infected cells and was expressed as CC50, which represents the concentration of compound required to inhibit the growth of the cells by 50%. The selectivity index (SI) (ratio CC50/EC50) is an indication of the selectivity of the anti-HIV activity of the inhibitor. Wherever results are reported as e.g. pEC50 or pCC50 values, the result is expressed as the negative logarithm of the result expressed as EC50 or CC50 respectively.
(§2) Because of the increasing emergence of drug resistant HIV strains, the present compounds were also tested for their potency against clinically isolated HIV strains harbouring several mutations (Tables 1 and 7). These mutations are associated with resistance to reverse transcriptase inhibitors and result in viruses that show various degrees of phenotypic cross-resistance to the currently commercially available drugs such as for instance AZT, didanosine, nevirapine, lamivudine and zalcibatine.

[2] = system: HIV strain C (L100I; K103N); assay: Antiviral cellular assay, mutant strain C; type: cell-based
Procedure: as §1, §2

[3] = system: HIV strain J (I31L, L100I, K103N, E138G, Y181C, L214F); assay: Antiviral cellular assay, mutant strain J; type: cell-based
Procedure: as §1, §2

[4] = system: Mycobacterium b.; assay: Specificity versus non-viral pathogens: Mycobacterium b.; type: cell-based
[5] = system: HIV strain A (Y181C); assay: Antiviral cellular assay, mutant strain A; type: cell-based
Procedure: as §1, §2

[6] = system: Plasmodium f.; assay: Specificity versus non-viral pathogens: Plasmodium f.; type: cell-based
[7] = system: Trypanosoma c.; assay: Specificity versus non-viral pathogens: Trypanosoma c.; type: cell-based
[8] = target: T1, HIV reverse transcriptase (Human immunodeficiency virus type 1 group M subtype B, UniProt P04585); assay: In vitro inhibition of HIV reverse transcriptase (kit TRK 1022); type: biochemical; conditions: enzyme assay, no conversion to active metabolite needed
T1 construct: 5 μl HIV RT enzyme solution at a final enzyme activity of 15 mU per 50 μl reaction; purchased Amersham Life Sciences TRK 1022
Procedure: In vitro Inhibition of HIV Reverse Transcriptase The assay was run using kit TRK 1022 (Amersham Life Sciences) according to the manufacturer's instructions with slight modifications. Compounds were diluted in steps of ¼ in 100% DMSO and subsequently transferred to Medium A (1/50 dilution; medium A: RPMI 1640+10% FetalClone II+Gentamycin 20 mg/L). 25 μl of compound (in 2% DMSO in Medium A) or 25 μl of 2% DMSO in medium A was added to wells. To each well was added 25.5 μl master mix (master mix: 5 μl primer/template beads, 10 μl assay buffer, 0.5 μl tracer (3H-TTP), 5 μl HIV RT enzyme solution at a final enzyme activity of 15 mU per 50 μl reaction, 5 μl medium A). The plates were sealed, marked as radioactive and incubated during 4 hours at 37° C. Subsequently, 100 μl stop solution was added to each well (except R1). The radioactivity was counted in a TopCount.

[9] = system: HIV-2; assay: Antiviral cellular assay, HIV-2; type: cell-based; conditions: Human immunodeficiency virus 2; read-out: pEC50 towards HIV-2 (converted)
Procedure: as §1, with “The toxicity of the compound was measured on the mock-infected cells and was expressed as CC50, which represents the concentration of compound required to inhibit the growth of the cells by 50%. The selectivity index (SI) (ratio CC50/EC50) is an indication of the selectivity of the anti-HIV activity of the inhibitor.” left out
(§3) Row WT: pEC50 against wild type HlV-LAI strain. The toxicity (Tox) is expressed as the pCC50 value as determined with mock transfected cells. ND means not determined.

[10] = system: HIV strain E (F227C); assay: Antiviral cellular assay, mutant strain E; type: cell-based
Procedure: as §1, §2

[11] = system: HIV strain K (multi-mutant incl. M41L, D67N, K103N, Y181C, L210W, T215Y); assay: Antiviral cellular assay, mutant strain K; type: cell-based
Procedure: as §1, §2

[12] = system: HIV strain I (K101E, K103N); assay: Antiviral cellular assay, mutant strain I; type: cell-based
Procedure: as §1, §2

[13] = system: HIV strain B (K103N); assay: Antiviral cellular assay, mutant strain B; type: cell-based
Procedure: as §1, §2

[14] = system: SIV (simian immunodeficiency virus); assay: Antiviral cellular assay, SIV; type: cell-based; conditions: read-out: pEC50 towards SIV (converted)
[15] = system: HIV strain D (L100I;K103N); assay: Antiviral cellular assay, mutant strain D; type: cell-based
Procedure: as §1, §2

[16] = system: HIV strain H (K103N, Y181C); assay: Antiviral cellular assay, mutant strain H; type: cell-based
Procedure: as §1, §2

[17] = system: wild type laboratory HIV strain (HIV-1 strain LAI); assay: Antiviral cellular assay (MT4 cells, MTT), wild type; type: cell-based; conditions: for pEC50: Human immunodeficiency virus 1, MT4; for EC50: Human immunodeficiency virus 1, WT, MT4 cells, read-out: pEC50 against wild type HIV-LAI strain (converted)
Procedure: The compounds of the present invention were examined for anti-viral activity in a cellular assay. […] The cellular assay was performed according to the following procedure.
as §1

[18] = in vitro; type: cell-based; conditions: human
Procedure: as §1, with “The toxicity of the compound was measured on the mock-infected cells and was expressed as CC50, which represents the concentration of compound required to inhibit the growth of the cells by 50%. The selectivity index (SI) (ratio CC50/EC50) is an indication of the selectivity of the anti-HIV activity of the inhibitor.” left out
as §3

[19] = system: HIV strain G (V106A, F227L); assay: Antiviral cellular assay, mutant strain G; type: cell-based
Procedure: as §1, §2

[20] = system: Trypanosoma b.; assay: Specificity versus non-viral pathogens: Trypanosoma b.; type: cell-based
[21] = EC50 mutant / EC50 wild type, rounded to nearest integer
[22] = read-out: EC50 value, wild-type HIV-LAI strain

## Cn1c2ccccc2c2c1cc(C#N)c(=O)n2-c1ccc([N+](=O)[O-])cc1 [Compound 2, 5-methyl-1-(4-nitro-phenyl)-2-oxo-2,5-dihydro-1H-pyrido[3,2-b]indole-3-carbonitrile]
[1]; [21]
  fold resistance, mutant F: (2)
[1]; Human immunodeficiency virus 1, read-out: pEC50 towards mutant F (converted)
  EC50: 0.0398 µM
[2]; [21]
  fold resistance, mutant C: (3)
[2]; Human immunodeficiency virus 1, read-out: pEC50 towards mutant C (converted)
  EC50: 0.0794 µM
[3]; [21]
  fold resistance, mutant J: (5)
[3]; Human immunodeficiency virus 1, read-out: pEC50 towards mutant J (converted)
  EC50: 0.126 µM
[4]
  pEC50: < 4.49
[5]; [21]
  fold resistance, mutant A: (4)
[5]; Human immunodeficiency virus 1, read-out: pEC50 towards mutant A (converted)
  EC50: 0.1 µM
[6]
  pEC50: < 4.49
[7]
  pEC50: < 4.49
[8]
  inhibition of HIV reverse transcriptase in vitro: inhibits HIV reverse transcriptase in vitro
[9]
  EC50: 0.251 µM
[10]; [21]
  fold resistance, mutant E: (3)
[10]; Human immunodeficiency virus 1, read-out: pEC50 towards mutant E (converted)
  EC50: 0.0631 µM
[11]; [21]
  fold resistance, mutant K: (4)
[11]; Human immunodeficiency virus 1, read-out: pEC50 towards mutant K (converted)
  EC50: 0.1 µM
[12]; [21]
  fold resistance, mutant I: (3)
[12]; Human immunodeficiency virus 1, read-out: pEC50 towards mutant I (converted)
  EC50: 0.0631 µM
[13]; [21]
  fold resistance, mutant B: (1)
[13]; Human immunodeficiency virus 1, read-out: pEC50 towards mutant B (converted)
  EC50: 0.0316 µM
[14]
  EC50: 0.316 µM
[15]; [21]
  fold resistance, mutant D: (2)
[15]; Human immunodeficiency virus 1, read-out: pEC50 towards mutant D (converted)
  EC50: 0.0501 µM
[16]; [21]
  fold resistance, mutant H: (5)
[16]; Human immunodeficiency virus 1, read-out: pEC50 towards mutant H (converted)
  EC50: 0.126 µM
[17]; read-out: EC50 value for wild-type HIV
  pEC50: > 7.00
[17]
  EC50: 0.0251 µM
[18]
  CC50 at 5 days: > 32.4 µM
[19]; [21]
  fold resistance, mutant G: (3)
[19]; Human immunodeficiency virus 1, read-out: pEC50 towards mutant G (converted)
  EC50: 0.0631 µM
[20]
  pEC50: < 4.49

## N#Cc1cc2c(c3ccccc3n2C2CCCC2)n(-c2ccc([N+](=O)[O-])cc2)c1=O [Compound 10]
[17]; [22]
  pEC50: 4.49 to 6.00

## CCn1c2ccccc2c2c1cc(C#N)c(=O)n2-c1ccc([N+](=O)[O-])cc1 [Compound 9]
[17]; [22]
  pEC50: > 6.00

## Cn1c2ccccc2c2c1cc(C#N)c(=O)n2-c1ccc(C#N)cc1 [Compound 46]
[17]; [22]
  pEC50: 4.49 to 6.00

## N#Cc1ccc(-n2c(=O)c(C#N)cc3[nH]c4ccccc4c32)cc1 [Compound 45]
[17]; [22]
  pEC50: < 4.49

## N#Cc1cc2c(c3ccccc3n2CC(=O)O)n(-c2ccc([N+](=O)[O-])cc2)c1=O [Compound 19]
[17]; [22]
  pEC50: 4.49 to 6.00

## Cn1c2ccccc2c2c1cc(C(=N)NO)c(=O)n2-c1ccc([N+](=O)[O-])cc1 [Compound 70]
[17]; [22]
  pEC50: 4.49 to 6.00

## Cn1c2ccccc2c2c1ccc(=O)n2-c1ccc(C(N)=O)cc1 [Compound 98]
[17]; [22]
  pEC50: 4.49 to 6.00

## Cn1c2ccccc2c2c1cc(C#N)c(=O)n2-c1ccc(-c2ccco2)cc1 [Compound 48]
[17]; [22]
  pEC50: 4.49 to 6.00

## O=c1ccc2[nH]c3ccccc3c2n1-c1ccc([N+](=O)[O-])cc1 [Compound 66]
[17]; [22]
  pEC50: 4.49 to 6.00

## O=C(O)c1ccc(-n2c(=O)ccc3[nH]c4ccccc4c32)cc1 [Compound 94]
[17]; [22]
  pEC50: 4.49 to 6.00

## N#Cc1cc2[nH]c3ccccc3c2n(-c2ccc(Br)cc2)c1=O [Compound 38]
[17]; [22]
  pEC50: 4.49 to 6.00

## N#Cc1cc2c(c3ccccc3n2Cc2ccccc2)n(-c2ccc([N+](=O)[O-])cc2)c1=O [Compound 6]
[17]; [22]
  pEC50: 4.49 to 6.00

## Cn1c2ccccc2c2c1cc(Cl)c(=O)n2-c1ccc(C(=O)O)cc1 [Compound 87]
[17]; [22]
  pEC50: 4.49 to 6.00

## CC(=O)CC1C(C#N)=C(N(C)C)N(c2ccc([N+](=O)[O-])cc2)c2c1n(C)c1ccccc21 (stereo not shown) [2-(dimethylamino)-4,5-dihydro-5-methyl-1-(4-nitrophenyl)-4-(2-oxopropyl)-1H-pyrido[3,2-b]indole-3-carbonitrile, reference compound]
[17]
  EC50: 3.16 µM
